In patent US6949533B2, “6,7-Oxygenated steroids and uses related thereto” (Inflazyme Pharmaceuticals Ltd., priority 1996, dated 2005) one finds inhibition data, which are given here for one compound.

Experiment [1] has as its system passively sensitized rat mast cells (RBL-2H3). Nature of the experiment: antigen-induced release of hexosaminidase from RBL-2H3 cells. The class given is cell-based. The conditions noted are these: Rattus norvegicus, RBL-2H3, 25 μM compound; antigen-induced hexosaminidase release; read-out: Percentage Inhibition (mean) RBL-2H3 Cells. The gist of the method: (§1)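 RBL-2H3 and MC/9 cells passively sensitized with anti-DNP IgE, incubated 1 h at 37 °C with compound at 25 μM, then challenged 15 min with 0.1 mg/ml DNP-HSA. Released hexosaminidase measured colorimetrically with p-NAG over 1 h at 410 nm; expressed as % of background-corrected antigen response with DMSO alone.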

For experiment [2], the system named is NF-κB. Nature of the experiment: NF-κB gel shift binding assay in TPA-stimulated RBL-2H3 cells. The format is cell-based. The conditions noted are these: Rattus norvegicus, compound 1 μM, 2 hours preincubation, read-out: Percent Inhibition of Response to TPA (0.1 μM). For orientation: Mobility shift assays separate free from complexed probe on a gel.
Experiment [3] deals with guinea pig ileum. Nature of the experiment: antigen-induced contraction of ileum from sensitized guinea pigs. The conditions noted are these: Cavia porcellus, read-out: Percentage Inhibition, 30 μM compound, n = 3-4. Summed up: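 Ileum from ovalbumin-sensitized guinea pigs suspended in Tyrode's buffer at 37 °C under 2 g tension, isometric contraction recorded. Tissues preincubated 20 min with 30 μM compound (0.15% DMSO control), then challenged with 100 μg/ml ovalbumin; contraction expressed as percent of 3 μM histamine response.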

Experiment [4] deals with mouse mast cells (MC/9). Nature of the experiment: antigen-induced release of hexosaminidase from MC/9 cells. The format is cell-based. The conditions noted are these: Mus musculus, MC9, 25 μM compound, read-out: Percentage Inhibition (mean) MC/9 cells. The gist of the method:
as §1

For experiment [5], the system named is rabbit platelets. Nature of the experiment: PAF-induced aggregation of rabbit platelets. The format is cell-based. The conditions noted are these: Oryctolagus cuniculus, Platelet; 80 μM compound, 5 min preincubation; PAF-stimulated rabbit platelets (title: 0.1 nM PAF); read-out: % Inhibition at 80 μM. The source says:
Within the present invention, it was discovered that the polyhydroxylated steroids as well as intermediates described in previous sections inhibited the aggregation of platelets caused by platelet activating factor (PAF). PAF is a local mediator of thrombosis and prevention of the formation of blood clots has direct implication in the treatment of thrombosis and associated cardiovascular diseases. The assay system used to evaluate the ability of compounds to inhibit the aggregation of platelets in response to exogenous stimuli is indicative of anti-thrombotic or thrombolytic activity.
Platelets were isolated from rabbit blood and prepared at a density of 2.4×10^8 cells/ml in Tyrodes buffer (pH 7.2) containing Ca^2+. Platelets were incubated with each compound for 5 min at 37° C. prior to stimulation. Platelets were stimulated with 1 nM platelet activating factor (PAF; EC75) in the presence of each of the compounds and aggregation was monitored for 5 min. Compounds were solubilized in dimethylsulfoxide (DMSO) and aggregation was measured as a percentage of the response to 1 nM PAF obtained in the presence of the appropriate concentration of DMSO. The degree of inhibition caused by each sample was calculated using the control response in the presence of DMSO equal to 100%.

As for `C/C=C1/CCC2C3C(CC[C@]12C)[C@@]1(C)CC[C@@H](O)CC1[C@@H](O)[C@@H]3O` (stereo partly drawn) [Compound 330, 3α,6α,7β-trihydroxy-17(20)-pregnene], the inhibition at 25 µM in experiment [1] amounted to 59%; in experiment [4], 49%. For the same compound, in experiment [2], the inhibition at 1 µM stood at 66%. In experiment [3], the inhibition at 30 µM was 70%. Besides, the inhibition at 80 µM in experiment [5] worked out at 20.9%.
